Test results as given in paper PMC11758220, “Identification of a Privileged Scaffold for Inhibition of Sterol Transport Proteins through the Synthesis and Ring Distortion of Diverse, Pseudo-Natural Products” (ACS Central Science, 2025).

Experiments:
[1] = biological target: T1, Aster-A (Homo sapiens, UniProt Q96CP6); assay: Microplate-based cholesterol transfer assay between liposomes (FRET); type: biochemical; details: Aster-A 125 nM, compound 10 μM, FRET with Rh-DHPE
T1 construct: Aster-A(359-547); GST (PreScission-cleavable) (N, cleaved yes); made in house; host or cells: E. coli OverExpress C41
T1 sequence (Q96CP6 359-547): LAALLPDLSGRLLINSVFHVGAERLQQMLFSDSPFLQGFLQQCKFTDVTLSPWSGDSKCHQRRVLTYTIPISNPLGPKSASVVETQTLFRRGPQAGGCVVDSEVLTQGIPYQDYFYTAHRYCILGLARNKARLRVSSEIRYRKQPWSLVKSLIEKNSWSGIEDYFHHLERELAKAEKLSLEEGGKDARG

[2] = biological target: T2, ORP2 (Homo sapiens, UniProt Q9H1P3); assay: Effect on intrinsic protein fluorescence, ORP2; details: protein 1 µM, excitation 280 nm
T2 construct: ORP2(49-480); host or cells: E. coli BL21(DE3)
T2 sequence (Q9H1P3 49-480): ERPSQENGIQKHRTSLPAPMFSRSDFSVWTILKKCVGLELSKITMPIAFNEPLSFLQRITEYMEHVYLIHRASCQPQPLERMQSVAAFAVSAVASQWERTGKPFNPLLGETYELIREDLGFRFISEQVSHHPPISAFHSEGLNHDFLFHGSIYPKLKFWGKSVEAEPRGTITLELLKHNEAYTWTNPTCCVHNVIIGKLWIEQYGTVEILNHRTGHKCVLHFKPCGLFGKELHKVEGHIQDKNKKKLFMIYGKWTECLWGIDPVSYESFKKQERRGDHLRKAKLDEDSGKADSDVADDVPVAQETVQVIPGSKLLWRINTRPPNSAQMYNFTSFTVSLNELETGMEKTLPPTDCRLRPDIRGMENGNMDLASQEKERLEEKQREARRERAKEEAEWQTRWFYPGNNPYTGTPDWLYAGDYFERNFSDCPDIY
Procedure: Effect of spirooxepinoindoles on intrinsic protein fluorescence
Figure S12: Spirooxepinoindoles 21a and 15f affect intrinsic protein fluorescence in dose-dependent fashion:
Respective proteins (1 µM) were incubated with the compounds at different doses. Proteins were excited at 280 ± 10 nm and fluorescence spectra were measured from 315 ± 20 nm to 600 ± 20 nm with a step size of 2 nm. A) STARD1 and 21a. B) ORP1 and 21a. C) ORP2 and 21a. D) ORP2 and 15f.
(1 picture or pasted object on this page, not shown here)
Superdex 75 pg (Cytiva) using an ÄKTA Explorer (Cytiva) in buffer containing 10 mM Tris -HCl, pH 8, 150 mM NaCl, 5 % glycerol and 2 mM DTT.
Fluorescence intensity and polarisation
Fluorescence intensity and polarisation (FP) experiments were performed in a buffer containing 20 mM HEPES pH 7.5, 300 mM NaCl, 0.01 %v/v Tween-20, 0.5% glycerol and 2 mM DTT in a final volume of 30 µl in black, flat-bottom, non-binding 384-well plates (Corning). All compounds were dispensed using the LabCyte Echo 550 Liquid handler. […] For competition experiments, 20 nM 22-NBD-cholesterol or 80 nM 25-NBD-cholesterol was mixed with protein and incubated with desired concentrations of screening compounds (Table S4) The fluorescence polarisation signal was measured using a Spark Cyto multimode microplate reader (Tecan) with filters set at 485 ± 20 nm for excitation and at 535 ± 20 nm for emission. […]

| Structure (SMILES) | Inhibition of Aster-A mediated transport of 23-BODIPY-cholesterol between synthetic liposomes [1] | Quenching of intrinsic fluorescence of ORP2 [2] |
| --- | --- | --- |
| CC12CCC3CC1CCC21C(=Nc2ccc(N4CCOCC4)cc21)O3 (single isomer, unassigned; (-)) [(−)-19a] | inhibited | – |
| COc1ccc2c(c1)[C@@]13CC[C@@H]4C[C@@H](CC[C@@]41C)OC3=N2 [Compound 15f] | – | quenches the ORP2 protein fluorescence in a dose-dependent manner |
| C[C@]12CC[C@@H]3C[C@H]1CC[C@@]21C(=Nc2ccc(-c4ccccc4)cc21)O3 [Compound 21a] | – | dose-dependently quenches |
